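Compound exposure: 48 hours, 5 concentrations, 96-well plates. GI50: concentration for 50% inhibition of growth. TGI: total growth inhibition.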 A value given as a limit tells only on which side of the number the result lay.

Holding throughout (assay): NCI tumour cell line growth inhibition, 48 h
Test [1] deals with SF-295 CNS.
The subject of test [2] is UACC-257 melanoma.
Test [3] relates to SN12C renal.
Test [4] deals with T-47D breast.
For test [5], the system named is 786-0 renal.
Test [6] deals with HCT-116 colon.
Test [7] deals with MCF7 breast.
Test [8] concerns SK-MEL-2 melanoma.
Test [9] has as its system COLO 205 colon.
Test [10] deals with NCI-H226 lung.

Turning to `O=C(OCC(Cl)(Cl)Cl)N1CC[C@H](C2CCCCC2)C1`, the TGI in test [1] is 31.5 µM; in [2], 38.7 µM; in test [3] it was greater than 100 µM; in [4], 35.1 µM; in test [5] it was 33.1 µM; in test [6], 31.6 µM. The TGI in [7] worked out at 34.9 µM; in test [8] it was 30.4 µM; in test [9], 39 µM.
`Nc1ncnc2c1ccn2C/C=C/CO`: the TGI in test [1], in test [2], in test [3], in test [4], in test [5] and in [6] was greater than 100 µM throughout. Further, the TGI in test [7], in test [8] and in test [9] was greater than 100 µM throughout.
As for `O=C(c1ccccc1)c1ccc2c(c1)NC(=O)c1ccccc1SSc1ccccc1C(=O)N2`, the TGI in test [1], in [2], in test [3], in test [4], in [5] and in [10] was greater than 100 µM in each case. For the same compound, the TGI in test [6], in test [8] and in test [9] was greater than 100 µM each time.
Consider `Clc1ccc(C=NC23CC4CC(CC(C4)C2)C3)c(Cl)c1`, for which the TGI in test [1], in test [2], in test [3], in [4], in test [5] and in test [10] was greater than 10 µM each time. Further, the TGI in [6], in [8] and in [9] was greater than 10 µM throughout.
On to `COc1ccc(CC(N)=O)cc1OC`, for which the TGI in test [1] was greater than 1250 µM; in test [2], greater than 580 µM; in test [3] it was greater than 1250 µM; in test [10] it was greater than 1250 µM; in test [6], greater than 1250 µM; in test [7] it was greater than 1250 µM. Further, the TGI in test [8] and in test [9] was greater than 1250 µM each time.
As for `CC(C)C1=CC23CCC4C(C)(C(=O)O)CCCC4(C)C2CC1C1C(=O)N(CCCCCCN2C(=O)C4C5CC6C7(C)CCCC(C)(C(=O)O)C7CCC6(C=C5C(C)C)C4C2=O)C(=O)C13` (stereo not drawn), the TGI in test [3] is 32.4 µM; in [4], 41.5 µM; in [6], 20.9 µM; in test [7], 21.7 µM; in test [8], 28.2 µM.
Take `COc1cc2c(cc1OCCCCCN1CCN(c3ncnc4ccccc34)CC1)N=CC1CCCN1C2=O` (stereo not drawn): the GI50 was 0.0226 µM in [1]; 0.0738 µM in test [2]; 0.03 µM in [3]; 0.0139 µM in test [4]; 0.0203 µM in test [10]; 0.0162 µM in test [7]. For the same compound, the GI50 in test [8] was 0.0425 µM; in test [9], 0.0187 µM. Besides, the TGI came to 0.0671 µM in test [1]; 0.568 µM in test [2]; 4.65 µM in test [3]; 0.0428 µM in [4]; 0.0479 µM in test [10]; 0.923 µM in test [7]. The results for the TGI in [8] and in test [9] were 0.709 µM and 0.0408 µM, respectively.
Turning to `O[C@H]1[C@H](O)[C@@H](O)CN2CC[C@H](O)[C@H]12`, the TGI in test [1], in test [2], in test [3], in test [10], in test [6] and in test [7] was greater than 100 µM each time. For the same compound, the TGI in test [8] and in [9] was greater than 100 µM each time.
On to `Nc1ncc2c(n1)-c1ccccc1OC2N1CCCC1` (stereo not drawn), for which the TGI in test [1], in [2], in test [3], in [5], in [10] and in test [6] was greater than 100 µM each time. Also, the TGI in test [7], in test [8] and in [9] was greater than 100 µM throughout.
As for `O=C(CN1C(=O)CC(c2ccccc2)(c2ccccc2)C1=O)N1CCN(CCO)CC1`, the TGI in test [1], in test [2], in [3], in test [4], in [5] and in [6] was greater than 100 µM in each case. In addition, the TGI in [7], in [8] and in [9] was greater than 100 µM in each case.
In the case of `CCOC(=O)/C=C1/C(CCCOCc2ccccc2)C2CCCC23CC2(CCN13)OCCO2` (stereo not drawn), the TGI in test [1] is greater than 100 µM; in test [2], 53.9 µM; in [3], 86.8 µM; in test [10] it was 66.7 µM; in test [8] it was 36.9 µM; in test [9], 34.2 µM.
`Nc1c(S(=O)(=O)c2ccc(Cl)cc2)c2nc3ccccc3nc2n2ccnc12`: the TGI in [1] was greater than 100 µM; in test [2], greater than 100 µM; in test [3], greater than 100 µM; in [5], greater than 100 µM; in test [10], 84.1 µM; in test [6], greater than 100 µM. Further, the TGI in test [8] and in test [9] was greater than 100 µM each time.
For `O=C1NC(O)CCN1C1OC(CO)C(O)C1O` (stereo not drawn), the TGI in test [1] was greater than 250 µM; in [2] it was greater than 250 µM; in test [3], greater than 250 µM; in [10], greater than 250 µM; in test [6], greater than 141 µM; in test [7], greater than 250 µM. For the same compound, the values for the TGI in test [8] and in test [9] were greater than 158 µM and greater than 250 µM, respectively.
On to `CSc1csc(-c2ccc(-c3ccc(-c4cc(SC)cs4)s3)s2)c1`, for which the TGI in test [1], in test [2], in test [3], in test [5], in test [10] and in [6] was greater than 100 µM throughout. The TGI in [7], in test [8] and in test [9] was greater than 100 µM throughout.
For the compound `[N-]=[N+]=CC(=O)OC(CCl)CCl`, the TGI in [1], in test [2], in [3], in [5], in [10] and in test [6] was greater than 100 µM in each case. Also, the TGI in test [7], in test [8] and in test [9] was greater than 100 µM in each case.
Take `CCN(CC)c1ccc(/C=C/c2ccnc3ccccc23)cc1`: the TGI in [1], in test [2], in [3], in test [4], in test [5] and in test [6] was greater than 100 µM each time. Also, the TGI in test [7], in test [8] and in test [9] was greater than 100 µM in each case.
As to `CC1(C)C=CC(=O)C(O)C(C)(C)C1=O` (stereo not drawn), the TGI in [1], in test [2], in [3], in test [4], in [5] and in test [10] was greater than 100 µM in each case. Moreover, the TGI in test [6], in test [8] and in [9] was greater than 100 µM each time.
Regarding `C=C(C)CNCCN`, the TGI in test [1], in test [2], in [3], in test [4], in test [5] and in test [10] was greater than 100 µM throughout. The TGI in [6] and in [8] was greater than 100 µM throughout.
Regarding `CN1Cc2c(nc(-c3ccccc3)c[n+]2[O-])N(C)C1`, the TGI in [1], in test [2], in test [3], in test [5], in test [10] and in [8] was greater than 100 µM throughout. Also, the TGI in [9] is greater than 100 µM.
As for `Clc1sc(Cl)c2c1[C@@H](Cl)C[C@@H]2Br`, the TGI in test [1], in test [2], in [3], in test [4], in test [5] and in test [6] was greater than 100 µM in each case. Moreover, the TGI in [7], in [8] and in [9] was greater than 100 µM each time.
`CC1=C(C#N)c2nc3ccccc3n2C(=O)C1(C)CCO` (stereo not drawn): the TGI in [1], in [2], in test [3], in test [5], in test [10] and in test [6] was greater than 100 µM in each case. Also, the TGI in test [7], in test [8] and in test [9] was greater than 100 µM each time.
In the case of `C=C(CN(C)C)C(=O)c1ccc(C(=O)C(=C)CN(C)C)cc1`, the TGI in test [1], in [2], in [3], in test [5], in [10] and in [6] was greater than 100 µM in each case. The TGI in [8] and in test [9] was greater than 100 µM throughout.
Turning to `COc1cc(C2c3cc4c(cc3[C@@H](Nc3ccccc3)C3COC(=O)[C@H]23)OCO4)cc(OC)c1O` (stereo partly drawn), the TGI was 3.79 µM in [1]; 4.27 µM in test [2]; 6.03 µM in test [3]; 2.12 µM in test [10]; 6.27 µM in test [6]; greater than 41.2 µM in test [7]. Besides, the TGI in test [8] came out at 6.97 µM; in test [9], 5.66 µM.

The values above are taken from PubChem BioAssay (NCI).
